Reference: patent US11629333B2, “Gamma delta T cells and a method of augmenting the tumoricidal activity of the same” (Agency for Science, Technology and Research, priority 2017, dated 2023)

How the values were obtained:
[1] = system: Human PBMCs; experiment: Expansion of Vγ9Vδ2 T cells from PBMCs, cell frequencies by flow cytometry; format: cell-based
From the text: FIGS. 1A to 1D (collectively referred to as “FIG. 1”) show the characterization of the cells expanded with Zometa, OKT3 and gamma-irradiated K562 aAPCs. Human PBMCs were first expanded with Zometa for 7 days, followed by treatment with Zometa, OKT3 and gamma-irradiated K562 aAPCs for another 10 days. Frequencies of Vγ9Vδ2 T cells (FIG. 1A), NKG2D-positive cells (FIG. 1B), CD3-positive alpha beta T cells (FIG. 1C) and CD3-negative, CD56-positive NK cells (FIG. 1D) in PBMCs, on day 7 and day 17 analyzed by flow cytometry are shown. PBMC samples from 7 donors were tested and each sample is represented by one line.
Human PBMC were isolated from fresh buffy coat of healthy donors by density gradient centrifugation using Ficoll-Paque (GE Healthcare, Milwaukee, Wis.). Human myelogenous leukemia cell line K562 (ATCC) and a K562-based aAPC cell line genetically engineered for stable expression of EGFP, CD86, CD64 and 4-1BBL (Du et al., 2016) were cultured in IMDM (Lonza Biotech, Basel, Switzerland) supplemented with 10% FBS. Other tumor cell lines used in the present invention were cultured in DMEM supplemented with 10% FBS.
(§1) For Vγ9Vδ2 T cell activation and expansion, PBMCs were seeded at a density of 2E6 cells/ml in AIM-V (Life Technologies) supplemented with 5% human AB serum (Valley Biomedical, Winchester, Va.). Zometa (5 μM, Sigma Aldrich, St. Louis, Mo.) and IL-2 (300 IU/ml) were added on day 0, followed by adding 50 ng/ml anti-CD3 antibody (OKT3 clone, eBioscience, San Diego, Calif.), gamma irradiated K562 aAPCs at a 100:1 ratio, 300 IU/ml IL-2, and 5 μM Zometa from day 7 onwards. […] The culture medium was refreshed every 2 to 3 days. In other words, the cells were passaged every 2 to 3 days.

[2] = system: SW480 human colon carcinoma cells, HepG2 human hepatocarcinoma cells, U87 human glioblastoma cells and SKOV3 human ovarian cancer cells; experiment: Delfia EuTDA cytotoxicity assay, tumor cells with or without Zometa pre-treatment; format: cell-based; settings: 1 μM Zometa pre-treatment of tumor cells
Method: Target tumor cells tested were SW480 human colon carcinoma, HepG2 human hepatocarcinoma cells, U87 human glioblastoma cells and SKOV3 human ovarian cancer cells. Tumor cells were either pre-treated with 1 μM Zometa or without Zometa treatment. Effector used are indicated. Delfia EuTDA cytotoxicity assay (3 hours EuTDA culturing) was used to assess tumor cell lysis efficiency at an effector to target ratio of 10:1. The results of one representative experiment out of three are shown.
The cytolytic activity of CAR-modified Vγ9Vδ2 T cells was examined with a non-radioactive method (DELFIA EuTDA Cytotoxicity Reagents kit, PerkinElmer, MA). Time-resolved fluorescence was measured in Victor3 multilabel plate counter (PerkinElmer). The effector to target (E:T) ratios used ranged from 20:1 to 2.5:1. Control groups were set up to measure spontaneous release (only target cells added), maximum release (target cells added with 10 μl lysis buffer), and medium background (no cell added). Killing efficacy was calculated by using the following formula: […]
Zometa treatment was used because Zometa can increase intracellular levels of IPP, thereby increasing the sensitivity of tumor cells to Vγ9Vδ2 T cells.

[3] = system: CTLA-4, PD1, LAG3, TIGIT, TIM3, and BTLA; experiment: Expression of co-inhibitory receptors on PBMCs and expanded cells by flow cytometry; format: cell-based, human
From the text: FIGS. 2A to 2F (collectively referred to as “FIG. 2”) show the expression of co-inhibitory receptors CTLA-4 (FIG. 2A), PD-1 (FIG. 2B), LAG-3 (FIG. 2C), TIGIT (FIG. 2D), TIM-3 (FIG. 2E) and BTLA (FIG. 2F) on PBMCs and the expanded cells. Human PBMCs were first expanded with Zometa for 7 days, followed by treatment with Zometa, OKT3 and gamma-irradiated K562 aAPCs for another 10 days. The expression frequencies of 6 co-inhibitory receptors on PBMCs and on the expanded cells collected on day 7 and day 17 analyzed by flow cytometry are shown. PBMC samples from 7 donors were tested and each sample is represented by one line.
as §1
In view of the important roles of co-inhibitory receptors in cancer therapy, the expression of six of them, namely, CTLA-4, PD1, LAG3, TIGIT, TIM3, and BTLA, on the Zometa-expanded Vγ9Vδ2 T cells was examined using flow cytometry (FIG. 2).

[4] = PBMCs treated with Zometa, day 7
[5] = 7 days after Zometa treatment, all 7 samples

O=P(O)(O)C(O)(Cn1ccnc1)P(=O)(O)O [Zometa, zoledronic acid]
NKG2D-positive cell population ([1]; PBMCs treated with 5 μM Zometa, day 0 to day 7): increase | Vγ9Vδ2 T-cell population ([1]; PBMCs treated with 5 μM Zometa, day 7): ~90% | proportion of NK cells [1, 4]: less than 3% | proportion of αβ T cells [1, 4]: less than 10% | sensitivity of HepG2 cells towards Vγ9Vδ2 T cells ([2]; HepG2): not | sensitivity of SKOV3 cells towards Vγ9Vδ2 T cells ([2]; SKOV3): significantly increased | sensitivity of SW480 cells towards Vγ9Vδ2 T cells ([2]; SW480): significantly increased | sensitivity of U87 cells towards Vγ9Vδ2 T cells ([2]; U87): significantly increased | CTLA-4-expressing cells [3, 5]: significant increase | LAG3-expressing cells [3, 5]: significant increase | TIGIT-expressing cells [3, 5]: significant increase | TIM3-expressing cells [3, 5]: significant increase | frequency of PD1-positive cells ([3]; 7 days after Zometa treatment, remaining samples (one sample increased, one decreased)): minor increase or no change | BTLA expression ([3]; Zometa treatment for 7 days): reduced
